The source made the active and inactive calls. The calls are words filed in the database; no cut-off is given here.

Assay [1] concerns Bacillus cereus. Nature of the assay: Antibacterial activity against Bacillus cereus 702 Roma at 10 mg after 18 hr by agar well diffusion method. It is filed as functional. The conditions noted are these: read-out: IZ.
Assay [2] concerns Enterococcus faecalis. Nature of the assay: Antibacterial activity against Enterococcus faecalis ATCC 29212 at 10 mg after 18 hr by agar well diffusion method. The assay is classed as functional. The conditions noted are these: ATCC 29212, 18 h, read-out: IZ.
The subject of assay [3] is Pseudomonas aeruginosa. Nature of the assay: Antibacterial activity against Pseudomonas aeruginosa ATCC 43288 at 10 mg after 18 hr by agar well diffusion method. The assay is classed as functional. Conditions: ATCC 43288, 18 h, read-out: IZ.
The test system of assay [4] is Staphylococcus aureus. Briefly: Antibacterial activity against Staphylococcus aureus ATCC 25923 at 10 mg after 18 hr by agar well diffusion method. It is filed as functional. The conditions noted are these: ATCC 25923, 18 h, read-out: IZ. (A growth-free zone around the sample is the usual read-out of agar diffusion tests.)
In another assay the test system is Candida tropicalis. Briefly: Antifungal activity against Candida tropicalis after 18 hr by agar well diffusion method. The assay is classed as functional, organism-based.
For assay [5], the system named is Staphylococcus aureus. Nature of the assay: Antibacterial activity against Staphylococcus aureus ATCC 25923 after 18 hr by agar well diffusion method. The assay is classed as functional.
Assay [6] has as its system Mycolicibacterium smegmatis. Nature of the assay: Antibacterial activity against Mycobacterium smegmatis ATCC 607 after 18 hr by agar well diffusion method. It is filed as functional.
The subject of assay [7] is Pseudomonas aeruginosa. Briefly: Antibacterial activity against Pseudomonas aeruginosa ATCC 43288 after 18 hr by agar well diffusion method. The assay is classed as functional.
Another assay relates to Saccharomyces cerevisiae. Briefly: Antifungal activity against Saccharomyces cerevisiae RSKK 251 after 18 hr by agar well diffusion method. The assay is classed as functional, organism-based.
The subject of assay [8] is Enterococcus faecalis. Briefly: Antibacterial activity against Enterococcus faecalis ATCC 29212 after 18 hr by agar well diffusion method. It is filed as functional.
Another assay has as its system Candida albicans. Nature of the assay: Antifungal activity against Candida albicans ATCC 60193 after 18 hr by agar well diffusion method. The assay is classed as functional, organism-based.
For assay [9], the system named is Bacillus cereus. Briefly: Antibacterial activity against Bacillus cereus 702 Roma after 18 hr by agar well diffusion method. It is filed as functional.

Turning to `CC1(C)S[C@@H]2[C@H](NC(=O)[C@H](N)c3ccccc3)C(=O)N2[C@H]1C(=O)O` [AMPICILLIN], the zone of inhibition at 10000 µg/disc is 15 mm with Bacillus cereus [1], 10 mm in the assay with Enterococcus faecalis [2], 18 mm in the assay on Pseudomonas aeruginosa [3] and 35 mm with Staphylococcus aureus [4].

With `O=C(Cn1nc(Cc2ccc(Cl)cc2)n(CCc2c[nH]c3ccccc23)c1=O)NNC(=O)NCc1ccccc1`, the result (in the assay on Candida tropicalis; in the assay with Staphylococcus aureus [5]; in assay [6]; with Pseudomonas aeruginosa [7]; in the assay with Saccharomyces cerevisiae; in the assay with Enterococcus faecalis [8]) was inactive. Moreover, the outcome with Candida albicans and in the assay with Bacillus cereus [9] was inactive.

The record behind these values is ChEMBL document CHEMBL3045946, “Synthesis and biological activity studies of new hybrid molecules containing tryptamine moiety” (2012).
